Target: T1, BRM (Homo sapiens, UniProt P51531)
T1 construct: In-Cell Western Screen of BRM Degradation in SW1573 Cells; endogenous in cells; host or cells: SW1573
Assay: In-cell Western screen of BRM degradation in SW1573 cells (Dmax and DC50)
Type: cell-based
Details: BRM degradation, SW1573 cells; for DC50: read-out: DC50; for Dmax: tested at the top concentration of between 0.3 and 10 μM, read-out: Dmax (%) (% degraded)
Procedure, shortened: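 SW1573 cells were treated with compound overnight (18-20 h; final DMSO 0.1%), then fixed in 4% PFA, permeabilized with Triton X-100 and blocked. BRM was detected by in-cell Western using 800 nm anti-rabbit and 680 nm anti-mouse secondaries, and Dmax and DC50 were derived from the LI-COR Odyssey signal.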

T1 sequence (P51531 whole entry): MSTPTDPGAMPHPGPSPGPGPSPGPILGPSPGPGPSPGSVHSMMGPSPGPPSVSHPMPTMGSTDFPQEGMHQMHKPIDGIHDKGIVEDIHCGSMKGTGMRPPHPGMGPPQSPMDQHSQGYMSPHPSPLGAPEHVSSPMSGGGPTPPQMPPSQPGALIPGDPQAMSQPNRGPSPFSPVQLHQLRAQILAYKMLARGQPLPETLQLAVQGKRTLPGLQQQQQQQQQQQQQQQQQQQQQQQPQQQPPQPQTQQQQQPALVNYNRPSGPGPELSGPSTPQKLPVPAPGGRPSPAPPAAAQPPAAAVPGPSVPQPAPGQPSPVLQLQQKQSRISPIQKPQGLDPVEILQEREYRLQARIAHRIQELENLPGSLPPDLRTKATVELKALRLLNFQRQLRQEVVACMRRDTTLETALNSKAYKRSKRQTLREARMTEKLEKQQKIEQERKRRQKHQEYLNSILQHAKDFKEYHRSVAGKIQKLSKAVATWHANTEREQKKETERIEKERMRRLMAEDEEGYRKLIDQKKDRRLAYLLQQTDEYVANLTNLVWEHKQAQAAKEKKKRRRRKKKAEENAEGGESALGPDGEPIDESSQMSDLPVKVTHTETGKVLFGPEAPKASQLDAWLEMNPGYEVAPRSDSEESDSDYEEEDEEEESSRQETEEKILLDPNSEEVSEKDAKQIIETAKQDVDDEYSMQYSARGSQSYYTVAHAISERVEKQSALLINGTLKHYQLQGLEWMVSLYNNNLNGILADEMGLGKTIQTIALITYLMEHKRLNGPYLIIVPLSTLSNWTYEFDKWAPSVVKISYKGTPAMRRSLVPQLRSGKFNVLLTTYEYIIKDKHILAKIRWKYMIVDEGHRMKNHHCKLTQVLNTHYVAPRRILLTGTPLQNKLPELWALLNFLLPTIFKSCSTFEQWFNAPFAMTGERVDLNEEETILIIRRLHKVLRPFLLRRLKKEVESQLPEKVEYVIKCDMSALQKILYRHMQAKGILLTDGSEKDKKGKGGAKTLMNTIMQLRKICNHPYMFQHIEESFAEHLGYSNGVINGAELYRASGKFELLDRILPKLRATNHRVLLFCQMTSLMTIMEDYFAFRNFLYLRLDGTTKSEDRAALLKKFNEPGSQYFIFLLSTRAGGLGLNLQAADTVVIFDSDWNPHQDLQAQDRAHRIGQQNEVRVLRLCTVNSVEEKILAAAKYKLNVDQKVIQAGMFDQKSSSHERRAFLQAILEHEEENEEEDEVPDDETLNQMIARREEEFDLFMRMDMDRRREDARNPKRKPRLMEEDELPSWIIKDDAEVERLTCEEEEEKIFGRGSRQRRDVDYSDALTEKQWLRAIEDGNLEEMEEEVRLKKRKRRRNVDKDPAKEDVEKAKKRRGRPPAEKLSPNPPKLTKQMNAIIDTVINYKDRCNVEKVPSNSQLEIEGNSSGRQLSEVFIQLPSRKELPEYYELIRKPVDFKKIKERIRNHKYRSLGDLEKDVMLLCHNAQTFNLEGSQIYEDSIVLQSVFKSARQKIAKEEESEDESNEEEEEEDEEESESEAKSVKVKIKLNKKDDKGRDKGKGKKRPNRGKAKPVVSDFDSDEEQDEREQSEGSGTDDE

Compound	DC50 [nM]	Dmax [%]
Cc1nccn1-c1ccc([C@H](C)NC(=O)[C@@H]2C[C@@H](O)CN2C(=O)[C@H](c2cc(OCCN3CCC(O[C@H]4C[C@H](Oc5cc(N6C7CCC6CN(c6cc(-c8ccccc8O)nnc6N)C7)ccn5)C4)CC3)no2)C(C)C)cc1 [compound 176, (2S,4R)-1-((2S)-2-(3-(2-(4-((1r,3S)-3-((4-(3-(3-amino-6-(2-hydroxyphenyl)pyridazin-4-yl)-3,8-diazabicyclo[3.2.1]octan-8-yl)pyridin-2-yl)oxy)cyclobutoxy)piperidin-1-yl)ethoxy)isoxazol-5-yl)-3-methylbutanoyl)-4-hydroxy-N-((S)-1-(4-(2-methyl-1H-imidazol-1-yl)phenyl)ethyl)pyrrolidine-2-carboxamide]	> 30	< 50
Cc1nccn1-c1ccc([C@H](C)NC(=O)[C@@H]2C[C@@H](O)CN2C(=O)[C@@H](c2cc(OCCN3CCC(O[C@H]4C[C@H](Oc5cc(N6C7CCC6CN(c6cc(-c8ccccc8O)nnc6N)C7)ccn5)C4)CC3)no2)C(C)C)cc1 [compound 178, (2S,4R)-1-((2R)-2-(3-(2-(4-((1r,3R)-3-((4-(3-(3-amino-6-(2-hydroxyphenyl)pyridazin-4-yl)-3,8-diazabicyclo[3.2.1]octan-8-yl)pyridin-2-yl)oxy)cyclobutoxy)piperidin-1-yl)ethoxy)isoxazol-5-yl)-3-methylbutanoyl)-4-hydroxy-N-((S)-1-(4-(2-methyl-1H-imidazol-1-yl)phenyl)ethyl)pyrrolidine-2-carboxamide]	< 2.5	> 75
Cc1ncsc1-c1ccc([C@H](C)NC(=O)[C@@H]2C[C@@H](O)CN2C(=O)[C@H](c2cc(OCCN3CCC(O[C@H]4C[C@H](Oc5cc(N6C7CCC6CN(c6cc(-c8ccccc8O)nnc6N)C7)ccn5)C4)CC3)no2)C(C)C)cn1 [compound 179, (2S,4R)-1-((2S)-2-(3-(2-(4-((1r,3S)-3-((4-(3-(3-amino-6-(2-hydroxyphenyl)pyridazin-4-yl)-3,8-diazabicyclo[3.2.1]octan-8-yl)pyridin-2-yl)oxy)cyclobutoxy)piperidin-1-yl)ethoxy)isoxazol-5-yl)-3-methylbutanoyl)-4-hydroxy-N-((S)-1-(6-(4-methylthiazol-5-yl)pyridin-3-yl)ethyl)pyrrolidine-2-carboxamide]	> 30	
Cc1ncsc1-c1ccc([C@H](C)NC(=O)[C@@H]2C[C@@H](O)CN2C(=O)[C@@H](c2cc(OCCN3CCC(O[C@H]4C[C@H](Oc5cc(N6C7CCC6CN(c6cc(-c8ccccc8O)nnc6N)C7)ccn5)C4)CC3)no2)C(C)C)cn1 [compound 180, (2S,4R)-1-((2R)-2-(3-(2-(4-((1r,3R)-3-((4-(3-(3-amino-6-(2-hydroxyphenyl)pyridazin-4-yl)-3,8-diazabicyclo[3.2.1]octan-8-yl)pyridin-2-yl)oxy)cyclobutoxy)piperidin-1-yl)ethoxy)isoxazol-5-yl)-3-methylbutanoyl)-4-hydroxy-N-((S)-1-(6-(4-methylthiazol-5-yl)pyridin-3-yl)ethyl)pyrrolidine-2-carboxamide]	< 2.5	> 75
Cc1ncsc1-c1ccc([C@H](C)NC(=O)[C@@H]2C[C@@H](O)CN2C(=O)[C@H](c2cc(OCCOCCOCCOCCn3cc(-c4cc(-c5ccccc5O)nnc4N)cn3)no2)C(C)C)cc1 [compound 181, (2S,4R)-1-((S)-2-(3-(2-(2-(2-(2-(4-(3-amino-6-(2-hydroxyphenyl)pyridazin-4-yl)-1H-pyrazol-1-yl)ethoxy)ethoxy)ethoxy)ethoxy)isoxazol-5-yl)-3-methylbutanoyl)-4-hydroxy-N-((S)-1-(4-(4-methylthiazol-5-yl)phenyl)ethyl)pyrrolidine-2-carboxamide]	> 30	
Cc1ncsc1-c1ccc([C@H](C)NC(=O)[C@@H]2C[C@@H](O)CN2C(=O)[C@@H](c2cc(OCCOCCOCCOCCn3cc(-c4cc(-c5ccccc5O)nnc4N)cn3)no2)C(C)C)cc1 [compound 182, (2S,4R)-1-((R)-2-(3-(2-(2-(2-(2-(4-(3-amino-6-(2-hydroxyphenyl)pyridazin-4-yl)-1H-pyrazol-1-yl)ethoxy)ethoxy)ethoxy)ethoxy)isoxazol-5-yl)-3-methylbutanoyl)-4-hydroxy-N-((S)-1-(4-(4-methylthiazol-5-yl)phenyl)ethyl)pyrrolidine-2-carboxamide]	2.5 to 10	> 75
Cc1ncsc1-c1ccc([C@H](C)NC(=O)[C@@H]2C[C@@H](O)CN2C(=O)[C@@H](NC(=O)COCCN2CCC(O[C@H]3C[C@H](Oc4cc(N5C6CCC5CN(c5cc(-c7ccccc7O)nnc5N)C6)ccn4)C3)CC2)C(C)(C)C)cc1 [compound 183, (2S,4R)-1-((2S)-2-(2-(2-(4-((1r,3S)-3-((4-(3-(3-amino-6-(2-hydroxyphenyl)pyridazin-4-yl)-3,8-diazabicyclo[3.2.1]octan-8-yl)pyridin-2-yl)oxy)cyclobutoxy)piperidin-1-yl)ethoxy)acetamido)-3,3-dimethylbutanoyl)-4-hydroxy-N-((S)-1-(4-(4-methylthiazol-5-yl)phenyl)ethyl)pyrrolidine-2-carboxamide]	< 2.5	> 75
COCc1ncsc1-c1ccc([C@H](C)NC(=O)[C@@H]2C[C@@H](O)CN2C(=O)[C@H](c2cc(OCCN3CCC(O[C@H]4C[C@H](Oc5cc(N6C7CCC6CN(c6cc(-c8ccccc8O)nnc6N)C7)ccn5)C4)CC3)no2)C(C)C)cc1 [compound 184, (2S,4R)-1-((2S)-2-(3-(2-(4-((1r,3S)-3-((4-(3-(3-amino-6-(2-hydroxyphenyl)pyridazin-4-yl)-3,8-diazabicyclo[3.2.1]octan-8-yl)pyridin-2-yl)oxy)cyclobutoxy)piperidin-1-yl)ethoxy)isoxazol-5-yl)-3-methylbutanoyl)-4-hydroxy-N-((S)-1-(4-(4-(methoxymethyl)thiazol-5-yl)phenyl)ethyl)pyrrolidine-2-carboxamide]	> 30	
COCc1ncsc1-c1ccc([C@H](C)NC(=O)[C@@H]2C[C@@H](O)CN2C(=O)[C@@H](c2cc(OCCN3CCC(O[C@H]4C[C@H](Oc5cc(N6C7CCC6CN(c6cc(-c8ccccc8O)nnc6N)C7)ccn5)C4)CC3)no2)C(C)C)cc1 [compound 185, (2S,4R)-1-((2R)-2-(3-(2-(4-((1r,3R)-3-((4-(3-(3-amino-6-(2-hydroxyphenyl)pyridazin-4-yl)-3,8-diazabicyclo[3.2.1]octan-8-yl)pyridin-2-yl)oxy)cyclobutoxy)piperidin-1-yl)ethoxy)isoxazol-5-yl)-3-methylbutanoyl)-4-hydroxy-N-((S)-1-(4-(4-(methoxymethyl)thiazol-5-yl)phenyl)ethyl)pyrrolidine-2-carboxamide]	< 2.5	> 75
Cc1ncsc1-c1ccc([C@H](C)NC(=O)[C@@H]2C[C@@H](O)CN2C(=O)[C@H](c2cc(OC/C=C/c3ccc(O[C@H]4C[C@H](Oc5cc(N6C7CCC6CN(c6cc(-c8ccccc8O)nnc6N)C7)ccn5)C4)cn3)no2)C(C)C)cc1 [compound 186, (2S,4R)-1-((2S)-2-(3-(((E)-3-(5-((1r,3S)-3-((4-(3-(3-amino-6-(2-hydroxyphenyl)pyridazin-4-yl)-3,8-diazabicyclo[3.2.1]octan-8-yl)pyridin-2-yl)oxy)cyclobutoxy)pyridin-2-yl)allyl)oxy)isoxazol-5-yl)-3-methylbutanoyl)-4-hydroxy-N-((S)-1-(4-(4-methylthiazol-5-yl)phenyl)ethyl)pyrrolidine-2-carboxamide]	10 to 30	> 75
Cc1ncsc1-c1ccc([C@H](C)NC(=O)[C@@H]2C[C@@H](O)CN2C(=O)[C@H](c2cc(OCCN3CCN(CC#CCN4CCOC5(CCN(c6cc(-c7ccccc7O)nnc6N)CC5)C4)CC3)no2)C(C)C)cc1 [compound 187, (2S,4R)-1-((S)-2-(3-(2-(4-(4-(9-(3-amino-6-(2-hydroxyphenyl)pyridazin-4-yl)-1-oxa-4,9-diazaspiro[5.5]undecan-4-yl)but-2-yn-1-yl)piperazin-1-yl)ethoxy)isoxazol-5-yl)-3-methylbutanoyl)-4-hydroxy-N-((S)-1-(4-(4-methylthiazol-5-yl)phenyl)ethyl)pyrrolidine-2-carboxamide]	> 30	
Cc1ncsc1-c1ccc([C@H](C)NC(=O)[C@@H]2C[C@@H](O)CN2C(=O)[C@@H](c2cc(OCCN3CCN(CC#CCN4CCOC5(CCN(c6cc(-c7ccccc7O)nnc6N)CC5)C4)CC3)no2)C(C)C)cc1 [compound 188, (2S,4R)-1-((R)-2-(3-(2-(4-(4-(9-(3-amino-6-(2-hydroxyphenyl)pyridazin-4-yl)-1-oxa-4,9-diazaspiro[5.5]undecan-4-yl)but-2-yn-1-yl)piperazin-1-yl)ethoxy)isoxazol-5-yl)-3-methylbutanoyl)-4-hydroxy-N-((S)-1-(4-(4-methylthiazol-5-yl)phenyl)ethyl)pyrrolidine-2-carboxamide]	< 2.5	> 75
Cc1ncsc1-c1ccc([C@H](C)NC(=O)[C@@H]2C[C@@H](O)CN2C(=O)[C@@H](c2cc(OCCN3CCC(O[C@H]4C[C@H](OCCn5cc(-c6cc(-c7ccccc7O)nnc6N)cn5)C4)CC3)no2)C(C)C)cc1 [compound 189, (2S,4R)-1-((R)-2-(3-(2-(4-((1r,3R)-3-(2-(4-(3-amino-6-(2-hydroxyphenyl)pyridazin-4-yl)-1H-pyrazol-1-yl)ethoxy)cyclobutoxy)piperidin-1-yl)ethoxy)isoxazol-5-yl)-3-methylbutanoyl)-4-hydroxy-N-((S)-1-(4-(4-methylthiazol-5-yl)phenyl)ethyl)pyrrolidine-2-carboxamide]	< 2.5	> 75

— patent US12539292B2, “BRM targeting compounds and associated methods of use” (Arvinas Operations, Inc., priority 2018, dated 2026)
